The values below come from US8242274B2, “Triazolopyridine kinase inhibitors useful for the treatment of degenerative and inflammatory diseases” (Galapagos NV, priority 2008, dated 2012).

The nature of data set [1]: Caco2 permeability, bi-directional. Type of data set: in vitro ADME. Particulars: human, Caco-2; 10 μM, 1 hour, pH 7.4. How it is done: Bi-directional Caco-2 assays were performed as described below. Caco-2 cells were obtained from European Collection of Cell Cultures (ECACC, cat 86010202) and used after a 21 day cell culture in 24-well Transwell plates (Fisher TKT-545-020B).
2×10^5 cells/well were seeded in plating medium consisting of DMEM+GlutaMAXI+1% NEAA+10% FBS (FetalClone II)+1% Pen/Strep. The medium was changed every 2-3 days.
Test and reference compounds (propranolol and rhodamine 123 or vinblastine, all purchased from Sigma) were prepared in Hanks' Balanced Salt Solution containing 25 mM HEPES (pH 7.4) and added to either the apical (125 μL) or basolateral (600 μL) chambers of the Transwell plate assembly at a concentration of 10 μM with a final DMSO concentration of 0.25%.
50 μM Lucifer Yellow (Sigma) was added to the donor buffer in all wells to assess integrity of the cell layers by monitoring Lucifer Yellow permeation. As Lucifer Yellow (LY) cannot freely permeate lipophilic barriers, a high degree of LY transport indicates poor integrity of the cell layer.
After a 1 hour incubation at 37° C. while shaking at an orbital shaker at 150 rpm, 70 μL aliquots were taken from both apical (A) and basal (B) chambers and added to 100 μLl 50:50 acetonitrile:water solution containing analytical internal standard (0.5 μM carbamazepine) in a 96 well plate.
Lucifer yellow was measured with a Spectramax Gemini XS (Ex 426 nm and Em 538 nm) in a clean 96 well plate containing 150 μL of liquid from basolateral and apical side.
Concentrations of compound in the samples were measured by high performance liquid-chromatography/mass spectroscopy (LC-MS/MS).
The Efflux ratios, as an indication of active efflux from the apical cell surface, were calculated using the ratio of PappB>A/PappA>B.
(Passage across Caco-2 layers is used to estimate intestinal permeability.)

Another data set has as its system MMP13. Description: OSM/IL-1β signaling assay (SW1353 cells). The following applies: Homo sapiens, 25 ng/mL OSM and 1 ng/mL IL-1β, 48 hours. Type of data set: cell-based.
The target of data set [2] is T1, Recombinant human JAK1 catalytic domain (Homo sapiens, UniProt P23458).
T1 construct: Recombinant human JAK1 catalytic domain (amino acids 850-1154; catalog number 08-144); purchased Carna Biosciences 08-144
Briefly: JAK1 inhibition assay. Type of data set: biochemical. The following applies: semi-quantitative score. The protocol: Recombinant human JAK1 catalytic domain (amino acids 850-1154; catalog number 08-144) was purchased from Carna Biosciences. 10 ng of JAK1 was incubated with 12.5 μg polyGT substrate (Sigma catalog number P0275) in kinase reaction buffer (15 mM Tris-HCl pH 7.5, 1 mM DTT, 0.01% Tween-20, 10 mM MgCl2, 2 μM non-radioactive ATP, 0.25 μCi 33P-gamma-ATP (GE Healthcare, catalog number AH9968) final concentrations) with or without 5 μL containing test compound or vehicle (DMSO, 1% final concentration), in a total volume of 25 μL, in a polypropylene 96-well plate (Greiner, V-bottom). After 45 min at 30° C., reactions were stopped by adding of 25 μL/well of 150 mM phosphoric acid. All of the terminated kinase reaction was transferred to prewashed (75 mM phosphoric acid) 96 well filter plates (Perkin Elmer catalog number 6005177) using a cell harvester (Perkin Elmer). Plates were washed 6 times with 300 μL per well of a 75 mM phosphoric acid solution and the bottom of the plates was sealed. 40 μL/well of Microscint-20 was added, the top of the plates was sealed and readout was performed using the Topcount (Perkin Elmer). Kinase activity was calculated by subtracting counts per minute (cpm) obtained in the presence of a positive control inhibitor (10 μM staurosporine) from cpm obtained in the presence of vehicle. The ability of a test compound to inhibit this activity was determined as: Percentage inhibition=((cpm determined for sample with test compound present−cpm determined for sample with positive control inhibitor)divided by(cpm determined in the presence of vehicle−cpm determined for sample with positive control inhibitor))*100%.
Dose dilution series were prepared for the compounds enabling the testing of dose-response effects in the JAK1 assay and the calculation of the IC50 for each compound. Each compound was routinely tested at concentration of 20 μM followed by a 1/3 serial dilution, 8 points (20 μM-6.67 μM-2.22 μM-740 nM-247 nM-82 nM-27 nM-9 nM) in a final concentration of 1% DMSO.

Data set [3] can be described thus: Microsomal stability, rat. Particulars: rat liver microsomes, 3 μM compound, 37° C. Format: in vitro ADME. How it is done: (§1) A 10 mM stock solution of compound in DMSO was diluted 1000 fold in a 182 mM phosphate buffer pH 7.4 in a 96 deep well plate (Greiner, Cat no. 780285) and pre-incubated at 37° C.
(§2) 40 μL of deionised water was added to a well of a polypropylene Matrix 2D barcode labelled storage tube (Thermo Scientific) and pre-incubated at 37° C.
(§3) A Glucose-6-phosphate-dehydrogenase (G6PDH) working stock solution was prepared in 182 mM phosphate buffer pH7.4 and placed on ice before use. A co-factor containing MgCl2, glucose-6-phosphate and NADP+ was prepared in deionised water and placed on ice before use.
(§4) A final working solution containing liver microsomes (Xenotech) of a species of interest (human, mouse, rat, dog), previously described G6PDH and co-factors was prepared and this mix was incubated for no longer than 20 minutes at room temperature.
(§5) 30 μL of the pre-heated compound dilution was added to 40 μL of pre-heated water in the Matrix tubes and 30 μL of the microsomal mix was added. Final reaction concentrations were 3 μM compound, 1 mg microsomes, 0.4 U/mL GDPDH, 3.3 mM MgCl2, 3.3 mM glucose-6-phosphate and 1.3 mM NADP+.
(§6) To measure percentage remaining of compound at time zero MeOH or ACN was added (1:1) to the well before adding the microsomal mix. The plates were sealed with Matrix Sepra Seals™ (Matrix, Cat. No. 4464) and shaken for a few seconds ensure complete mixing of all components.
(§7) The samples which were not stopped are incubated at 37° C., 300 rpm and after 1 hour of incubation the reaction was stopped with MeOH or ACN (1:1).
(§8) After stopping the reaction the samples were mixed and placed on ice for 30 min to precipitate the proteins. The plates were then centrifuged 30 min at 1200 rcf at 4° C. and the supernatant was transferred to a 96 v-bottom PP plate (Greiner, 651201) for analysis on LCMS.
(§9) These plates were sealed with sealing mats (MA96RD-04S) of www.kinesis.co.uk and samples were measured at room temperature on LCMS (ZQ 1525 from Waters) under optimized conditions using Quanoptimize to determine the appropriate mass of the parent molecule.
(§10) The samples were analyzed on LCMS with a flow rate of 1 mL/min. Solvent A was 15 mM ammonia and solvent B was methanol or acetonitrile, depending on the stop solution used. The samples were run under positive ion spray on an XBridge C18 […] (2.1×30 mm) column, from Waters.
(§11) Peak area from the parent compound at time 0 was considered to be 100% remaining. The percentage remaining after 1 hour incubation was calculated from time 0 and was calculated as the percentage remaining. The solubility of the compound in the final test concentration in buffer is inspected by microscope and results are reported.
(§12) The data on microsomal stability are expressed as a percentage of the total amount of compound remaining after 60 minutes.
A general note: Liver microsomes are a subcellular fraction often used to study metabolism.

The nature of data set [4]: Microsomal stability, human. Format: in vitro ADME. The following applies: human liver microsomes, 3 μM compound, 37° C. The protocol: as §1, §2, §3, §4, §5, §6, §7, §8, §9, §10, §11, §12

T1 sequence (P23458 850-1154): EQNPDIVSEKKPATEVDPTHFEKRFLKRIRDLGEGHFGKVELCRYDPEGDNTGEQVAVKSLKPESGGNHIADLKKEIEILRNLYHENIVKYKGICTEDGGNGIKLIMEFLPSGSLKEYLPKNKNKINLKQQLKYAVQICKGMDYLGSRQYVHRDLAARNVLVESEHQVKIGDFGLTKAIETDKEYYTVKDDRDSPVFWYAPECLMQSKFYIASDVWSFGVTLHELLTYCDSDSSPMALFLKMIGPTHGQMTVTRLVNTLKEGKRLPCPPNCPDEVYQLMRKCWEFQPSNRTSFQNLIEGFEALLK
Procedure for MMP13: The cells were seeded in 96 well plates at 15,000 cells/well in a volume of 120 μL DMEM (Invitrogen) containing 10% (v/v) FBS and 1% penicillin/streptomycin (InVitrogen) incubated at 37° C. 5% CO2. Cells were preincubated with 15 μL compound in M199 medium with 2% DMSO 1 hr before triggering with 15 μL OSM and IL-1β to reach 25 ng/mL OSM and 1 ng/mL IL-1β, and MMP13 levels were measured in conditioned medium 48 hours after triggering. MMP13 activity was measured using an antibody capture activity assay. For this purpose, 384 well plates (NUNC, 460518, MaxiSorb black) were coated with 35 μL of a 1.5 μg/mL anti-human MMP13 antibody (R&D Systems, MAB511) solution for 24 hours at 4° C. After washing the wells 2 times with PBS+0.05% Tween, the remaining binding sites were blocked with 100 μL 5% non-fat dry milk (Santa Cruz, sc-2325, Blotto) in PBS for 24 hours at 4° C. […] Next the wells were washed twice with PBS+0.05% Tween followed by MMP13 activation by addition of 35 μL of a 1.5 mM 4-Aminophenylmercuric acetate (APMA) (Sigma, A9563) solution and incubation at 37° C. for 1 hour. […] After incubation for 24 hours at 37° C. fluorescence of the converted substrate was measured in a Perkin Elmer Wallac EnVision 2102 Multilabel Reader (wavelength excitation: 320 nm, wavelength emission: 405 nm).

In the case of `NC(=O)c1ccc(COc2ccc(-c3cccc4nc(NC(=O)C5CC5)nn34)cc2)cn1` [Compound 192, 5-{4-[2-(Cyclopropanecarbonyl-amino)-[1,2,4]triazolo[1,5-a]pyridin-5-yl]-phenoxymethyl}-pyridine-2-carboxylic acid amide], the Papp A→B at 1 h, 10 μM in data set [1] turned out to be 12.5 ×10⁻⁶ cm/s. The 50% effective concentration (EC50) in the data set on MMP13 is over 1000 nM. The IC50 in data set [2] lay within 0.1 to 100 nM. For the same compound, the “Microsomal stability Rat (%), compound remaining after 60 minutes” value in data set [3] is 77.62%. For the same compound, in data set [4], the “Microsomal stability Human (%), compound remaining after 60 minutes” value turned out to be 127.2%.

As a reminder, the Papp A→B is the apparent permeability from the apical to the basolateral side of a cell layer. What is called EC50 is the concentration that produces a half-maximal response. Higher therefore signals a less potent agent. A word on the IC50: it is the concentration needed to halve the response being measured.
